Literature values in patent US20040204482A1, “Extended release oral dosage form” (priority 2001, published 2004).

Settings: in vivo

plasma elimination half-life, t1/2: 1.5 h
Structure (SMILES): NC(=O)c1ccc(F)c2c1C[C@@H](N(C1CCC1)C1CCC1)CO2.O.O=C(O)C(O)C(O)C(=O)O [(R)-3-N,N-dicyclobutylamino-8-fluoro-3,4-dihydro-2H-1-benzopyran-5-carboxamide hydrogen (2R,3R)-tartrate monohydrate]
